# Experimental data published in US8163739B2, “2-arylthiazole-4-carboxamide derivatives, their preparation and use as pharmaceuticals” (Bayer Pharma Aktiengesellschaft, priority 2007, dated 2012).
# System: TLR7
# Experiment: TLR-induced cytokine release in human peripheral blood mononuclear cells (PBMC), TNF-alpha ELISA
# Format: cell-based
# Conditions: 18 hours incubation, TLR7 ligand, TNF-alpha by ELISA, read-out: EC50 (TNF-α TLR7)
# Procedure: TLR-induced Cytokine Release in Human “Peripheral Blood Mononuclear Cells” (PBMC)
# PBMCs isolated from human whole blood are stimulated using a TLR ligand.
# The cytokine determination is carried out by means of ELISA kits; a proliferation/cell metabolism determination is carried out using Alamar Blue.
# For the cell preparation, about 200 ml of blood are treated with an anticoagulant (e.g. citrate Monovettes). Per Leucosep tube, 15 ml of Histopaque (room temperature, RT) are poured in and forced downwards through the inserted frit by brief initial centrifugation (one minute at 1000×g, RT). 20 ml of blood are added to the tubes prepared in this way and centrifuged at 800×g for 15 minutes (RT). After centrifugation, the following layered arrangement results from the top to the bottom:
# plasma-PBMC-Histopaque-filter disc-Histopaque-erythrocytes and granulocytes. The supernatant plasma is aspirated. The PBMC are transferred together with the underlying Histopaque to a new 50 ml tube, the contents of two Leucosep tubes always being added to one 50 ml tube. The 50 ml tubes are then filled to 50 ml with PBS. This cell suspension is centrifuged at 300×g (RT) for 10 minutes.
# The liquid supernatant is tipped off and the cell pellet is resuspended with a little PBS and subsequently filled to 50 ml with PBS. This washing step is repeated twice. The resulting pellet is taken up in a defined volume of medium (with additives). For the testing of the substances, PBMC are incubated for 18 hours with titrated concentrations of the test substances, e.g. in the presence or absence of TLR7 or TLR9 ligands. On the next day, the supernatants are investigated for the content of TNF-alpha or other cyto- or chemokines by means of specific ELISA. The metabolic activity of the treated cells is determined with the aid of Alamar Blue.
row,SMILES,EC50 [nM]
1,"Cn1ncc(NC(=O)c2csc(-c3ccc4c(c3)CCO4)n2)c1C(N)=O [Example 2.1, N-[5-(Aminocarbonyl)-1-methyl-1H-pyrazol-4-yl]-2-(2,3-dihydro-5-benzofuranyl)-4-thiazolecarboxamide]",1200
2,"CS(=O)(=O)c1cccc(-c2nc(C(=O)Nc3ccccc3C(N)=O)cs2)c1 [Example 3.2, N-[2-(Aminocarbonyl)phenyl]-2-(3-methylsulphonylphenyl)-4-thiazole-carboxamide]",3400

# Stronger by EC50, values ahead:
row,EC50 [nM],SMILES
1,85,"Cn1cc(NC(=O)c2csc(-c3cccc(S(C)(=O)=O)c3)n2)c(C(N)=O)n1 [Example 1.1, 2-(3-Methanesulphonylphenyl)thiazole-4-(3-carbamoyl-1-methyl-1H-pyrazol-4-yl)carboxamide]"
2,1100,"CN1CCc2c(sc(NC(=O)c3csc(-c4ccc5c(c4)CCO5)n3)c2C(N)=O)C1 [Example 2.5, 2-{[2-(2,3-Dihydrobenzofuran-5-yl)thiazole-4-carbonyl]amino}-6-methyl-4,5,6,7-tetrahydrothieno[2,3-c]pyridine-3-carboxamide]"
3,300,"NC(=O)c1ccccc1NC(=O)c1csc(-c2ccc3c(c2)OCO3)n1 [Example 3.1, N-[2-(Aminocarbonyl)phenyl]-2-(3,4-methylenedioxyphenyl)-4-thiazolecarboxamide]"
4,120,"COc1ccc(-c2nc(C(=O)Nc3ccccc3C(N)=O)cs2)cc1F [Example 3.4, N-[2-(Aminocarbonyl)phenyl]-2-(3-fluoro-4-methoxyphenyl)-4-thiazole-carboxamide]"
